{"source": "patent US7208303B2", "about": "“Bacterial nitric oxide synthases and uses thereof” (Cornell Research Foundation, Inc., priority 2003, dated 2007)", "key": {"S. turgidiscabies": {"tested_on": "S. turgidiscabies", "test": "Bacterial growth of S. turgidiscabies cultures (dry weight of mycelia)", "assay_type": "cell-based, Streptomyces turgidiscabies", "settings": "FIG. 4C", "procedure": "(§1) Sonicated cell lysates from 3 mL cultures were run on 12% SDS-PAGE gels after 2.5 hr induction with 0.1 mM IPTG. […] The NOS intermediate N^ω-hydroxy-L-arginine (2 mM) and hydrogen peroxide (4 mM) were reacted with 20 μL of cell lysates shown in FIG. 4A and assayed for nitrite with the Griess reagents after 15 min.\n(§2) Streptomyces turgidiscabies cultures were grown in oat bran broth or oat meal broth (Healy et al., Mol. Micro. 38:794–804 (2000); and Goyer et al., Phytopathology 88:442–445 (1998), which are hereby incorporated by reference in their entirety) inoculated with spores. After shaking at 150 rpm and 25° C. for 5–9 days the cultures were filtered and dry weight of the mycelia was measured. Thaxtomin was extracted from the filtrate with ethyl acetate, dried, redissolved in methanol, and quantified using HPLC (column: 5 μm C18; 250×4.6 mm; mobile phase: MeCN: H20:TFA (40:60:0.1)). In experiments investigating the suppression of thaxtomin production in the presence of L-NAME, this NOS inhibitor was dissolved in water, filter-sterilized, and added at the time of inoculation."}, "[1]": {"tested_on": "thaxtomin A production by S. turgidiscabies", "test": "Thaxtomin A production by S. turgidiscabies cultures in presence of NOS inhibitors (HPLC)", "assay_type": "cell-based, Streptomyces turgidiscabies", "settings": "FIG. 4C, n=6", "procedure": "as §1, §2\nFor stNOS to be responsible for thaxtomin nitration, stNOS should have NO synthase activity. Further, this activity and thaxtomin production should be arginine dependent. As predicted, overexpressed stNOS in E. coli produced nitrite from N-hydroxy-L-arginine in a standard NOS assay (FIGS. 4A–4B). N-hydroxy-L-arginine is an intermediate unique to the NOS catalytic reaction and nitrite represents the end product of NO reacting in oxygenated solution. NO synthase activity of the recombinant stNOS was inhibited by the selective NOS inhibitor nitro-L-arginine (FIG. 4B); nitro-L-arginine is the active form of Nitro-L-arginine methyl ester (NAME). NOS inhibitors were also evaluated for their effect on thaxtomin A production by S. turgidiscabies. […]"}}, "data": [{"smiles": "O=[N+]([O-])c1cccc2cn[nH]c12", "note": "[7-IN, 7-nitroindazole]", "values": [{"measurement": "bacterial growth", "setting": "S. turgidiscabies; 1.2 μM", "value": "without affecting bacterial growth"}, {"measurement": "toxin production", "setting": "[1]; 1.2 μM", "value": "inhibit toxin product"}]}, {"smiles": "CNC(=N)NCCC[C@H](N)C(=O)O", "note": "[NMMA, NG-monomethyl-L-arginine]", "values": [{"measurement": "bacterial growth", "setting": "S. turgidiscabies; 510 μM", "value": "without affecting bacterial growth"}, {"measurement": "toxin production", "setting": "[1]; 510 μM", "value": "inhibit toxin product"}]}, {"smiles": "N=C(N)NN", "note": "[AG, aminoguanidine]", "values": [{"measurement": "bacterial growth", "setting": "S. turgidiscabies; 270 μM", "value": "without affecting bacterial growth"}, {"measurement": "toxin production", "setting": "[1]; 270 μM", "value": "inhibit toxin product"}]}]}
